PubChem BioAssay (NCI)
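These data come from cells grown in 96-well plates and exposed to compound for 48 hours at five concentrations. TGI: concentration producing complete growth inhibition.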

Tests used:
Test in all cases: growth of human tumour cells (NCI), 48 h
786-0 renal = system: 786-0 renal
A498 renal = system: A498 renal
A549 NSCLC = system: A549 NSCLC
ACHN renal = system: ACHN renal
BT-549 breast = system: BT-549 breast
CAKI-1 renal = system: CAKI-1 renal
CCRF-CEM leukemia = system: CCRF-CEM leukemia
COLO 205 colon = system: COLO 205 colon
DLD-1 colon = system: DLD-1 colon
DMS 114 small cell lung = system: DMS 114 small cell lung
DMS 273 small cell lung = system: DMS 273 small cell lung
DU-145 prostate = system: DU-145 prostate
EKVX NSCLC = system: EKVX NSCLC
HCC-2998 colon = system: HCC-2998 colon
HCT-116 colon = system: HCT-116 colon
HCT-15 colon = system: HCT-15 colon
HL-60(TB) leukemia = system: HL-60(TB) leukemia
HOP-18 NSCLC = system: HOP-18 NSCLC
HOP-62 NSCLC = system: HOP-62 NSCLC
HOP-92 NSCLC = system: HOP-92 NSCLC
HS 578T breast = system: HS 578T breast
HT29 colon = system: HT29 colon
IGROV1 ovarian = system: IGROV1 ovarian
K-562 leukemia = system: K-562 leukemia
KM12 colon = system: KM12 colon
KM20L2 colon = system: KM20L2 colon
LOX IMVI melanoma = system: LOX IMVI melanoma
LXFL 529 NSCLC = system: LXFL 529 NSCLC
M14 melanoma = system: M14 melanoma
MALME-3M melanoma = system: MALME-3M melanoma
MDA-MB-231 breast = system: MDA-MB-231 breast
MDA-MB-435 = system: MDA-MB-435
MDA-N = system: MDA-N
MOLT-4 leukemia = system: MOLT-4 leukemia
NCI-H226 lung = system: NCI-H226 lung
NCI-H23 lung = system: NCI-H23 lung
NCI-H460 lung = system: NCI-H460 lung
NCI-H522 lung = system: NCI-H522 lung
OVCAR-3 ovarian = system: OVCAR-3 ovarian
OVCAR-4 ovarian = system: OVCAR-4 ovarian
OVCAR-5 ovarian = system: OVCAR-5 ovarian
OVCAR-8 ovarian = system: OVCAR-8 ovarian
PC-3 prostate = system: PC-3 prostate
RPMI-8226 leukemia = system: RPMI-8226 leukemia
RXF 393 renal = system: RXF 393 renal
SF-268 CNS = system: SF-268 CNS
SF-295 CNS = system: SF-295 CNS
SF-539 CNS = system: SF-539 CNS
SK-MEL-2 melanoma = system: SK-MEL-2 melanoma
SK-MEL-28 melanoma = system: SK-MEL-28 melanoma
SK-MEL-5 melanoma = system: SK-MEL-5 melanoma
SK-OV-3 ovarian = system: SK-OV-3 ovarian
SN12C renal = system: SN12C renal
SNB-19 CNS = system: SNB-19 CNS
SNB-75 CNS = system: SNB-75 CNS
SNB-78 CNS = system: SNB-78 CNS
SR leukemia = system: SR leukemia
SW-620 colon = system: SW-620 colon
T-47D breast = system: T-47D breast
TK-10 renal = system: TK-10 renal
U251 CNS = system: U251 CNS
UACC-257 melanoma = system: UACC-257 melanoma
UACC-62 melanoma = system: UACC-62 melanoma
UO-31 renal = system: UO-31 renal
XF 498 CNS = system: XF 498 CNS
M19-MEL melanoma = system: M19-MEL melanoma

COc1cccc2c1C(=O)c1c(O)c3c(c(O)c1C2=O)C[C@@](O)(C(=O)CO)C[C@@H]3OC1CC(N(C)C)C(O)C(C)O1 (stereo partly drawn)
TGI (786-0 renal): 1510 nM | TGI (A498 renal): < 19.5 nM | TGI (A549 NSCLC): 785 nM | TGI (ACHN renal): 96.6 nM | TGI (BT-549 breast): 556 nM | TGI (CAKI-1 renal): 73.3 nM | TGI (CCRF-CEM leukemia): 7590 nM | TGI (COLO 205 colon): 18.6 nM | TGI (DLD-1 colon): 176 nM | TGI (DMS 114 small cell lung): 204 nM | TGI (DMS 273 small cell lung): 158 nM | TGI (DU-145 prostate): 803 nM | TGI (EKVX NSCLC): 413 nM | TGI (HCC-2998 colon): 258 nM | TGI (HCT-116 colon): 12300 nM | TGI (HCT-15 colon): 765 nM | TGI (HL-60(TB) leukemia): 20.6 nM | TGI (HOP-18 NSCLC): 2950 nM | TGI (HOP-62 NSCLC): 272 nM | TGI (HOP-92 NSCLC): 312 nM | TGI (HS 578T breast): 34.4 nM | TGI (HT29 colon): 1820 nM | TGI (IGROV1 ovarian): 183 nM | TGI (K-562 leukemia): 9410 nM | TGI (KM12 colon): 338 nM | TGI (KM20L2 colon): 591 nM | TGI (LOX IMVI melanoma): 10.2 nM | TGI (LXFL 529 NSCLC): 1600 nM | TGI (M14 melanoma): 104 nM | TGI (MALME-3M melanoma): 57.6 nM | TGI (MDA-MB-231 breast): 615 nM | TGI (MDA-MB-435): 165 nM | TGI (MDA-N): 83.3 nM | TGI (MOLT-4 leukemia): 299 nM | TGI (NCI-H226 lung): 81.4 nM | TGI (NCI-H23 lung): 94.6 nM | TGI (NCI-H460 lung): 16.7 nM | TGI (NCI-H522 lung): 92.2 nM | TGI (OVCAR-3 ovarian): 858 nM | TGI (OVCAR-4 ovarian): 266 nM | TGI (OVCAR-5 ovarian): 352 nM | TGI (OVCAR-8 ovarian): 1520 nM | TGI (PC-3 prostate): 102 nM | TGI (RPMI-8226 leukemia): 825 nM | TGI (RXF 393 renal): 82.7 nM | TGI (SF-268 CNS): 360 nM | TGI (SF-295 CNS): 173 nM | TGI (SF-539 CNS): 121 nM | TGI (SK-MEL-2 melanoma): 88.5 nM | TGI (SK-MEL-28 melanoma): 168 nM | TGI (SK-MEL-5 melanoma): 45.5 nM | TGI (SK-OV-3 ovarian): 1760 nM | TGI (SN12C renal): 1140 nM | TGI (SNB-19 CNS): 649 nM | TGI (SNB-75 CNS): 138 nM | TGI (SNB-78 CNS): 645 nM | TGI (SR leukemia): 18.8 nM | TGI (SW-620 colon): 1380 nM | TGI (T-47D breast): 96.9 nM | TGI (TK-10 renal): 2280 nM | TGI (U251 CNS): 2750 nM | TGI (UACC-257 melanoma): 153 nM | TGI (UACC-62 melanoma): 26.1 nM | TGI (UO-31 renal): 427 nM | TGI (XF 498 CNS): 55.3 nM

COC(=O)/C(C#N)=C1\CCC(OC)N1 (stereo not drawn)
TGI (786-0 renal): > 100000 nM | TGI (A549 NSCLC): > 100000 nM | TGI (ACHN renal): > 100000 nM | TGI (CAKI-1 renal): > 100000 nM | TGI (CCRF-CEM leukemia): > 100000 nM | TGI (COLO 205 colon): > 100000 nM | TGI (DLD-1 colon): > 100000 nM | TGI (DMS 114 small cell lung): > 100000 nM | TGI (DMS 273 small cell lung): > 100000 nM | TGI (EKVX NSCLC): > 100000 nM | TGI (HCC-2998 colon): > 100000 nM | TGI (HCT-116 colon): > 100000 nM | TGI (HCT-15 colon): > 100000 nM | TGI (HL-60(TB) leukemia): > 100000 nM | TGI (HOP-18 NSCLC): > 100000 nM | TGI (HOP-62 NSCLC): > 100000 nM | TGI (HT29 colon): > 100000 nM | TGI (IGROV1 ovarian): > 100000 nM | TGI (K-562 leukemia): > 100000 nM | TGI (KM12 colon): > 100000 nM | TGI (KM20L2 colon): > 100000 nM | TGI (LOX IMVI melanoma): > 100000 nM | TGI (LXFL 529 NSCLC): > 100000 nM | TGI (M14 melanoma): > 100000 nM | TGI (M19-MEL melanoma): > 100000 nM | TGI (MALME-3M melanoma): > 100000 nM | TGI (MOLT-4 leukemia): > 100000 nM | TGI (NCI-H226 lung): > 100000 nM | TGI (NCI-H23 lung): > 100000 nM | TGI (NCI-H460 lung): > 100000 nM | TGI (NCI-H522 lung): > 100000 nM | TGI (OVCAR-3 ovarian): > 100000 nM | TGI (OVCAR-4 ovarian): > 100000 nM | TGI (OVCAR-5 ovarian): > 100000 nM | TGI (OVCAR-8 ovarian): > 100000 nM | TGI (RPMI-8226 leukemia): > 100000 nM | TGI (RXF 393 renal): > 100000 nM | TGI (SF-268 CNS): > 100000 nM | TGI (SF-295 CNS): > 100000 nM | TGI (SF-539 CNS): > 100000 nM | TGI (SK-MEL-2 melanoma): > 100000 nM | TGI (SK-MEL-28 melanoma): > 100000 nM | TGI (SK-MEL-5 melanoma): > 100000 nM | TGI (SK-OV-3 ovarian): > 100000 nM | TGI (SN12C renal): > 100000 nM | TGI (SNB-19 CNS): > 100000 nM | TGI (SNB-75 CNS): > 100000 nM | TGI (SNB-78 CNS): > 100000 nM | TGI (SW-620 colon): > 100000 nM | TGI (TK-10 renal): > 100000 nM | TGI (U251 CNS): > 100000 nM | TGI (UACC-257 melanoma): > 100000 nM | TGI (UACC-62 melanoma): > 100000 nM | TGI (UO-31 renal): > 100000 nM | TGI (XF 498 CNS): > 100000 nM

O=C(O)[C@@H](NS(=O)(=O)c1ccc(F)cc1)c1ccccc1
TGI (786-0 renal): > 100000 nM | TGI (A549 NSCLC): > 100000 nM | TGI (ACHN renal): > 100000 nM | TGI (CAKI-1 renal): > 100000 nM | TGI (CCRF-CEM leukemia): > 100000 nM | TGI (COLO 205 colon): > 100000 nM | TGI (DLD-1 colon): > 100000 nM | TGI (DMS 114 small cell lung): > 100000 nM | TGI (DMS 273 small cell lung): > 100000 nM | TGI (EKVX NSCLC): > 100000 nM | TGI (HCC-2998 colon): > 100000 nM | TGI (HCT-116 colon): > 100000 nM | TGI (HCT-15 colon): > 100000 nM | TGI (HOP-18 NSCLC): > 100000 nM | TGI (HOP-62 NSCLC): > 100000 nM | TGI (HT29 colon): > 100000 nM | TGI (IGROV1 ovarian): > 100000 nM | TGI (K-562 leukemia): > 100000 nM | TGI (KM20L2 colon): > 100000 nM | TGI (LOX IMVI melanoma): > 100000 nM | TGI (LXFL 529 NSCLC): > 100000 nM | TGI (M14 melanoma): > 100000 nM | TGI (M19-MEL melanoma): > 100000 nM | TGI (MALME-3M melanoma): > 100000 nM | TGI (MOLT-4 leukemia): > 100000 nM | TGI (NCI-H226 lung): > 100000 nM | TGI (NCI-H23 lung): > 100000 nM | TGI (NCI-H460 lung): > 100000 nM | TGI (NCI-H522 lung): > 100000 nM | TGI (OVCAR-3 ovarian): > 100000 nM | TGI (OVCAR-4 ovarian): > 100000 nM | TGI (OVCAR-5 ovarian): > 100000 nM | TGI (OVCAR-8 ovarian): > 100000 nM | TGI (RPMI-8226 leukemia): > 100000 nM | TGI (RXF 393 renal): > 100000 nM | TGI (SF-268 CNS): > 100000 nM | TGI (SF-295 CNS): > 100000 nM | TGI (SF-539 CNS): > 100000 nM | TGI (SK-MEL-2 melanoma): > 100000 nM | TGI (SK-MEL-28 melanoma): > 100000 nM | TGI (SK-MEL-5 melanoma): > 100000 nM | TGI (SK-OV-3 ovarian): > 100000 nM | TGI (SN12C renal): > 100000 nM | TGI (SNB-19 CNS): > 100000 nM | TGI (SNB-75 CNS): > 100000 nM | TGI (SNB-78 CNS): > 100000 nM | TGI (SW-620 colon): > 100000 nM | TGI (TK-10 renal): > 100000 nM | TGI (U251 CNS): > 100000 nM | TGI (UACC-257 melanoma): > 100000 nM | TGI (UACC-62 melanoma): > 100000 nM | TGI (UO-31 renal): > 100000 nM | TGI (XF 498 CNS): > 100000 nM
